Each block holds one compound with its values, some of them ahead of it.
Legend:
[1] = Parallel artificial membrane permeability assay (PAMPA-GIT, PAMPA-BBB, PAMPA-SKIN); assay type: in vitro ADME; details: isoflavones from red clover extracts, donor 12.5 mg/mL, pH 7.4, 4 h at 37 °C, BBB and SKIN membranes; for Papp at 4 h, 12.5 mg/mL: PAMPA, read-out: Apparent permeability coefficient (Papp)
Protocol: Then, 200 μL of the donor solution was added to the donor wells. Subsequently, each filter membrane of the top plate was coated with a suitable lipid solution, i.e., 5 μL BBB, GIT or preincubated with hydration buffer 24 h earlier for SKIN assay (Pion Inc., Billerica, MA, USA), and the acceptor well was filled with 200 μL of acceptor fluid. The acceptor plate and the donor plate were coupled together and incubated for 4 h at 37 °C. After incubation, the plates were separated, and the concentrations of compounds that crossed the membrane were determined using HPLC. To calculate Papp, the following equation was used:(3) Papp=−ln1−CA/Cequilibrium/S×1/VD+1/VA×t where Papp—effective permeability coefficient (cm/s), VD—donor volume, VA—acceptor volume, Cequilibrium—equilibrium concentration, S—membrane area, and t—incubation time (in seconds).
Samples were analyzed in triplicate.

collagenase = experiment: Collagenase inhibition assay; assay type: biochemical; details: positive control
Protocol: The collagenase inhibitory activity of each sample was determined in vitro according to Widodo et al. with some modifications. In summary, 15.0 μL of enzyme, 60 μL of tricine buffer (pH 7.5) and 30 μL of extracts (50 mg/mL) were mixed and incubated at 37 °C for 20 min. Next, 20 μL of FALGPA (0.5 mM) was added to the mixture, and the absorbance was immediately measured at 325 nm using the plate reader (Multiskan GO 1510, Thermo Fisher Scientific, Vantaa, Finland). The absorbance was measured again after 20 min of incubation at 37 °C following the addition of the substrate. A control sample containing only the solvent used instead of the extract was performed, and the results were reduced by the value of the blank representing the enzyme-free sample. The positive control was a sample containing a solution of epigallocatechin gallate instead of the extract tested. The collagenase inhibition rate (presented for the final concentration of substance in enzymatic reaction) expressed as a percentage of inhibition was calculated using Formula (2).

[2] = parameters: method as in PMID 29504397; details: rat study; cited from earlier work
[3] = CUPRAC assay (antioxidant activity); details: standard substance
Protocol: To create the CUPRAC reagent, a conical flask wrapped in aluminum foil was used. Equal volumes of a 7.5 mM neocuproine solution in 96% ethanol, a 10 mM aqueous copper chloride solution and an ammonium acetate buffer solution (pH = 7) were added to the flask. In the 96-well plate, 50.0 µL of the test sample and 150.0 µL of the CUPRAC reagent solution were combined. The blank consisted of a mixture of the CUPRAC reagent and the solvent used for extraction. The assay was replicated six times. The plate was covered with aluminum foil, shaken for 5 min at 25 °C and then incubated at room temperature for 25 min. The absorbance was measured at 450 nm using a plate reader (Multiskan GO 1510, Thermo Fisher Scientific, Vantaa, Finland). […] This value was determined using a polynomial trend line.

[4] = DPPH assay (free radical scavenging); details: standard substance
Protocol: In summary, a 96-well plate was used for the assay. Each well contained 25.0 μL of the test sample and 175.0 μL of a DPPH radical solution (3.9 mg/50 mL) in methanol. The control sample consisted of the DPPH radical solution and the solvent used for extraction, while the blank represented the absorbance value obtained from combining 25.0 μL of the extraction solvent with 175.0 μL of the solvent used to dissolve the DPPH radical (methanol). This procedure was repeated six times. The plate was shaken for 5 min at 25 °C and then incubated for 25 min at room temperature. The absorbance was measured at 517 nm using a plate reader (Multiskan GO 1510, Thermo Fisher Scientific, Vantaa, Finland). The free radical scavenging capacity (%) of the test extracts and the standard substance was calculated using the following equation:(1) […] activity%=A0-A1/A0×100% where A0 is the absorbance of the control, and A1 is the absorbance of the tested sample.

Papp at 4 h, 12.5 mg/mL [1]: > 1 ×10⁻⁶ cm/s
Compound: COc1ccc(-c2coc3cc(O)cc(O)c3c2=O)cc1 [biochanin A]

Apparent permeability coefficient (Papp) [1]: did not show such permeability
Compound: O=c1c(-c2ccc(O)cc2)coc2cc(O)cc(O)c12 [genistein]

Compound: O=C(O[C@@H]1Cc2c(O)cc(O)cc2O[C@@H]1c1cc(O)c(O)c(O)c1)c1cc(O)c(O)c(O)c1 [EGCG, epigallocatechin gallate]
Collagenase inhibition IC50 (collagenase): IC50 = 0.666 ± 0.007 mg/ml

Papp at 4 h, 12.5 mg/mL [1]: > 1 ×10⁻⁶ cm/s
Compound: COc1ccc(-c2coc3cc(O)ccc3c2=O)cc1 [formononetin]
bioavailability [2]: 21.8%

CUPRAC IC50 [3]: 73 ± 3 µg/mL
DPPH IC50 [4]: 68 ± 5 µg/mL
Compound: O=C1O[C@H]([C@@H](O)CO)C(O)=C1O [Ascorbic acid]
